In US20240336617A1, “Substituted Bimane Compounds and Methods of Use Thereof” (THE TRUSTEES OF THE UNIVERSITY OF PENNSYLVANIA, priority 2023, published 2024):
“Also recorded” adds a separate entry of the source. Like-named read-outs stand apart in the source and are kept apart here.

Legend:
[1] = Molar absorptivity determination; type: physicochemical;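 further: molar absorptivity derived from UV-Vis absorbance spectra recorded for each derivative on a spectrometer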
Method: The absorbance spectrum of each derivative (150 μL) was measured on a Thermo Scientific Genesys 150 UV-Vis spectrometer, using 50:50 ACN/PBS as a blank.
Molar absorptivity determination. […] The absorbance spectrum of each derivative (150 μL) was measured on a Thermo Scientific Genesys 150 UV-Vis spectrometer, using 50:50 ACN/PBS as a blank.

[2] = Fluorescent quantum yield (QY) measurements; type: physicochemical
Method: For each QY measurement, the incident excitation light spectrum was collected with 1 mL of solvent. […] Using the JASCO Quantum Yield Software, the dye QY was calculated by dividing the dye fluorescence intensity by the difference in incident light intensity in the presence and absence of dye. The minimum excitation wavelength for a full excitation incident spectrum using this setup is 360 nm.
Fluorescent quantum yield (QY) measurements. For each QY measurement, the incident excitation light spectrum was collected with 1 mL of solvent. After measuring the incident light intensity, dye (3 and 5a-5k) was added to the solvent from a concentrated stock solution to a final concentration of […] and the new spectrum (fluorescence intensity and new incident light intensity) was collected. Using the JASCO Quantum Yield Software, the dye QY was calculated by dividing the dye fluorescence intensity by the difference in incident light intensity in the presence and absence of dye. The minimum excitation wavelength for a full excitation incident spectrum using this setup is 360 nm.

Aβ1-42 fibrils = target: T1, Aβ1-42 fibrils (Homo sapiens, UniProt P05067); experiment: Fluorescence and excitation spectra with Aβ1-42 fibrils; type: binding
T1 construct: The β-amyloid (1-42) peptide, human; purchased Genscript RP10017
Method: (§1) Fluorescence measurements were performed using a PTI QuantaMaster™ 40 fluorescence spectrometer. Fluorescence spectra of 10 μM probes (concentrated stock solution prepared as 10 mM in DMSO) (7j, 7k, 7l, 7m, and ThT) in PBS buffer were measured in the absence and presence of 50 μM Aβ1-42 fibrils (stock solution 1 mM Aβ1-42 in 10 mM phosphate buffer, pH 7.4).
(§2) Excitation spectral measurements were performed using a PTI QuantaMaster™ 40 fluorescence spectrometer. Excitation spectra of 10 μM probes (concentrated stock solution prepared as 10 mM in DMSO) (7j, 7k, 7l, 7m, and ThT) in PBS buffer were measured in the absence and presence of 50 μM Aβ1-42 fibrils (stock solution 1 mM Aβ1-42 in phosphate buffer).
as §1, with “(5j, 5k” for “(7j, 7k, 7l, 7m,”, “Ab1-42” for “Aβ1-42”
as §2, with “QuantaMaster” for “QuantaMaster™”, “(5j, 5k” for “(7j, 7k, 7l, 7m,”, “Ab1-42” for “Aβ1-42”, “buffer). […]” for “buffer).”

[3] = Absorbance measurements (UV-Vis); conditions: 25 μM
[4] = Fluorescence (emission) measurements; type: physicochemical;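 further: fluorescence emission spectra recorded on a spectrofluorometer, with each compound excited at its own absorption maximum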
Method: The fluorescence spectrum of each derivative (150 μL) was measured on a Photon Technology International (PTI) QuantaMaster™ 40 fluorescence spectrometer by excitation at the maximum absorption wavelength for each compound.
The fluorescence spectrum of each derivative (150 μL) was measured on a Photon Technology International (PTJ) QuantaMaster™ 40 fluorescence spectrometer by excitation at the maximum absorption wavelength for each compound.

[5] = system: αS fibrils versus tau fibrils; experiment: Amyloid selectivity by plate reader, αS versus tau fibrils; type: binding
Method: Experiments were performed on the Tecan Spark in Greiner 96 well flat black ½ area plates using the following parameters: excitation and emission band widths 5 nm, lag time 0 μs, integration time 40 μs. A 10 mM DMSO stock solution of probes (7j-7m) and 100 μM stock of αS fibrils were used in the study described herein.

[6] = background statement; cited from earlier work
[7] = target: T2, amplified αS fibrils (AFs) from PDD patient brain extracts (Homo sapiens, UniProt P37840); experiment: Fluorescence measurements with PDD patient cases (lysate, AFs, PFFs); type: binding; conditions: lysate or AFs and probe 1 μM
T2 construct: made in house; host or cells: recombinant αS monomer, seeded with sarkosyl-insoluble extract of human frontal cortex (AD or PDD)
Method: All procedures were performed in accordance with local institutional review board guidelines. Written informed consent for autopsy and analysis of tissue sample data was obtained either from patients themselves or their next of kin. Frozen postmortem human frontal cortex brain tissues from three patients diagnosed with Alzheimer's disease (AD) and three patients diagnosed with Parkinson's disease with dementia (PDD) were selected for sequential extraction of αS aggregates based on a high burden of αS pathology determined by immunohistochemical staining. In brief, 5-10 g of frontal cortical gray matter were homogenized in five volumes (W/V) of high-salt (HS) buffer (50 mM Tris-HCl pH 7.4, 750 mM NaCl, 10 mM NaF, 5 mM EDTA) with protease and protein phosphatase inhibitors, incubated on ice for 20 min and centrifuged at 100,000×g for 30 min. The pellets were then re-extracted with HS buffer, followed by sequential extractions with five volumes of 1% Triton X-100-containing HS buffer and 1% Triton X-100-containing HS buffer with 30% sucrose. The pellets were then re-suspended and homogenized in 1% sarkosyl-containing HS buffer, rotated at room temperature for 2 h or at 4° C. overnight and centrifuged at 100,000×g for 30 min. […] These final sarkosyl-insoluble fractions are referred to as “brain extracts.: The amount of αS in the brain extracts was determined by sandwich ELISA using Syn9027, a mono-clonal antibody (Mab) to αS, and the protein concentrations were examined by bicinchoninic acid (BCA) assay. […]
(§3) Brain-derived αS aggregates in extract samples from three AD and three PDD cases (FIG. 38A) were used as seeds for templated aggregation of recombinant αS monomer. […] After seven days of incubation, amplification progress was determined by removing an aliquot and diluting tenfold in DPBS to a final αS concentration of 3.5 μM. […] Equal volumes of supernatant and pellet fractions were analyzed on SDS-PAGE gels and Western blot, with amplified aggregates migrating to the pellet fraction (FIG. 38B). […]

[8] = target: T3, amplified αS fibrils (AFs) from AD patient brain extracts (Homo sapiens, UniProt P37840); experiment: Fluorescence measurements with AD patient cases (lysate, AFs, PFFs); type: binding; conditions: lysate or AFs and probe 1 μM
T3 construct: made in house; host or cells: recombinant αS monomer, seeded with sarkosyl-insoluble extract of human frontal cortex (AD or PDD)
Method: All procedures were performed in accordance with local institutional review board guidelines. Written informed consent for autopsy and analysis of tissue sample data was obtained either from patients themselves or their next of kin. Frozen postmortem human frontal cortex brain tissues from three patients diagnosed with Alzheimer's disease (AD) and three patients diagnosed with Parkinson's disease with dementia (PDD) were selected for sequential extraction of αS aggregates based on a high burden of αS pathology determined by immunohistochemical staining. […] These final sarkosyl-insoluble fractions are referred to as “brain extracts.: The amount of αS in the brain extracts was determined by sandwich ELISA using Syn9027, a mono-clonal antibody (Mab) to αS, and the protein concentrations were examined by bicinchoninic acid (BCA) assay. […]
as §3

T1 sequence (P05067 672-713): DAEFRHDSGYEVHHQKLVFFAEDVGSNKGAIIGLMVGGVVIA

Row | Structure (SMILES) | ε ([1]; ACN only) | ε ([1]; ACN:PBS (50:50 v/v)) | Q.Y. ([2]; ACN only) | Q.Y. ([2]; ACN:PBS (50:50 v/v)) | fluorescence turn on with Aβ1-42 fibrils (Aβ1-42 fibrils) | Abs. λabs ([3]; ACN only) | Abs. λabs ([3]; ACN:PBS (50:50 v/v)) | Stokes shift ([4]; ACN only) | Em. λem ([4]; ACN only, 25 μM) | Stokes shift ([4]; ACN:PBS (50:50 v/v)) | turn on with αS and tau fibrils [5] | Stokes shift [6] | fluorescence detection of PDD amplified fibrils (AFs) [7] | fluorescence detection of AD amplified fibrils (AFs) [8]
1 | Cc1c(C)n2c(/C=C/c3nc4ccc(N(C)C)cc4s3)c(C)c(=O)n2c1=O [Compound 8f, (E)-3-(2-(6-(dimethylamino)benzo[d]thiazol-2-yl)vinyl)-2,5,6-trimethyl-1H,7H-pyrazolo[1,2-a]pyrazole-1,7-dione] | 25212 M⁻¹ cm⁻¹ | 22370 M⁻¹ cm⁻¹ | 44.2% | 0.77% | high turn on of fluorescence in the presence of PFFs; also recorded: selective fluorescence increases in the presence of Aβ1-42 fibrils | 435 nm | 447 nm | 189 nm | 624 nm | 195 nm | – | – | – | –
2 | Cc1ccc2c(c1)sc(-c1ccc(N(C)C)cc1)[n+]2C.[Cl-] [ThT, Thioflavin-T, reference compound] | – | – | – | – | – | – | – | – | – | – | high turn on with both αS and tau; also recorded: high turn-on with both αS and tau | ~50 nm | does not effectively detect these amplified fibrils; also recorded: unable to differentiate the lysates and AFs of PDD samples | barely registers significance for detection of AFs in AD samples
